Test results published in ChEMBL document CHEMBL1144117, “Two new cytotoxic carbonimidic dichlorides from the nudibranch Reticulidia fungia” (J Nat Prod, 1999).
≈ marks a conversion by molar mass, not a printed value.

What was measured:
KB = test: Cytotoxicity against human KB cells after 72 hrs by MTT assay; format: functional, cell-based
L1210 = test: Cytotoxicity against mouse L1210 cells after 72 hrs by MTT assay; format: functional, cell-based; conditions: L1210, 72 h

SMILES	IC50 (KB) [µg/mL]	IC50 (L1210) [µg/mL]
CC1(C)[C@@H](Cl)[C@@H](O)C[C@]2(C)CC(/C=C/N=C(Cl)Cl)=CC[C@@H]12 [RETICULIDIN B]	0.42 (≈ 1.2 µM)	0.11 (≈ 0.314 µM)
CC1(C)[C@@H](Cl)[C@H](O)C[C@]2(C)C=C(/C=C/N=C(Cl)Cl)CC[C@@H]12 [RETICULIDIN A]	0.41 (≈ 1.17 µM)	0.59 (≈ 1.68 µM)
